Results from the SangsterLogP compilation.

Experiment: method code SF-AS, from PMID: 9631499

Row | logP | Compound
1 | 3.01 | Clc1ccc(C=NOCCc2nnc(-c3ccccc3)o2)cc1
2 | 2.83 | Clc1ccc(C=NOCCc2nnc(-c3ccccc3)[nH]2)cc1
3 | 4.1 | Cc1ccc(-c2nnc(CCON=Cc3ccc(Cl)cc3Cl)[nH]2)cc1
4 | 3.39 | Cc1ccc(-c2nnc(CCON=Cc3ccc(Cl)cc3)[nH]2)cc1
5 | 3.39 | Cc1cccc(-c2nnc(CCON=Cc3ccc(Cl)cc3)[nH]2)c1

More lines, now with the values behind:

Row | Compound | logP
6 | Clc1ccc(C=NOCCc2nnc(-c3ccccc3)o2)c(Cl)c1 | 3.72
7 | Cc1ccc(-c2nnc(CCON=Cc3ccc(Cl)cc3Cl)o2)cc1 | 4.28
8 | Cc1cccc(-c2nnc(CCON=Cc3ccc(Cl)cc3Cl)[nH]2)c1 | 4.1
9 | Cc1ccc(-c2nnc(CCON=Cc3ccc(Cl)cc3)o2)cc1 | 3.57
10 | Cc1ccc(C=NOCCc2nnc(-c3cccc(C)c3)o2)cc1 | 3.57
11 | Cc1cccc(-c2nnc(CCON=Cc3ccc(Cl)cc3Cl)o2)c1 | 4.28
